Measurements as given in US20240124483A1, “Methods for the Treatment of Fibrotic Disease” (SHY Therapeutics, LLC, priority 2021, published 2024).
Where two headings read alike, the source gives them in different places.

Legend:
KRas G12D mutant = KRas G12D mutant (Homo sapiens (Human), UniProt P01116, G12D); experiment: Ras GTP Binding Domain Inhibition Assay, KRas G12D mutant; details: for inhibition at 20 µM: Table 7; for KRas G12D mutant + SOS: % inh. / KRas G12D mutant: % inh.: 20 uM, Table 8
Chain of KRas G12D mutant (P01116 other isoform, or with tags, fused parts or gaps G12D): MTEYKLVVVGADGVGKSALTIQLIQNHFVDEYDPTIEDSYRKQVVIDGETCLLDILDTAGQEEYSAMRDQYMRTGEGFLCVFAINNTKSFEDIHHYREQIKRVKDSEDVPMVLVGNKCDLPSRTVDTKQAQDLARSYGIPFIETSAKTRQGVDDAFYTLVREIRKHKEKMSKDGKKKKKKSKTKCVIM
Experimental: (§1) A Ras Superfamily Activity Assay (as disclosed in International Application No. PCT/US2018/038613, filed Jun. 20, 2018, which is incorporated by reference in its entirety) was used as a specific assay to evaluate compounds against the following for the following Ras Superfamily proteins: KRas wild type, KRas Q61H mutant, KRas G12C mutant, KRas G12D mutant, Rac-1, and Rho-A.
(§2) Buffer-I: • 25 mM Tris-HCl, pH 7.4 • 27 mM KCl • 137 mM NaCl • 1 mM MgCl2 • 1 mM DTT
(§3) Buffer-II: • 50 mM Tris-HCl, pH 7.0 • 1 mM MgCl2 • 1 mM DTT
(§4) The small GTPases proteins: KRas wild type. KRas Q61H mutant, KRas G12C mutant, KRas G12D mutants, Rac-1, and Rho-A were expressed as His-tagged proteins. In addition, the Guanosine nucleotide Exchange Factor (GEF) Sos protein (residues 556-1049) was expressed as a His-tagged protein. In cells, the guanine nucleotide exchange factor Sos protein promotes activation of Ras proteins by stimulating an exchange of GDP for GTP. The inclusion of Sos to the Ras GTP binding domain inhibition assay may be considered as an alternative representation of physiological cellular conditions for evaluating the inhibitory activity of some of the tested small molecules.
(§5) For the assay, all purified small GTPases proteins were diluted in Buffer-I or Buffer-II to a final concentration of 10-30 μg/mL. 200 μL of each diluted protein was added to a nickel-coated 96-well plate and incubated overnight at 4° C. Then the protein solution was discarded and 200 μL of Buffer-I or Buffer-II was added to each well in the presence of 1% DMSO. Compounds to be tested were added to the protein-coated wells at final concentration of 20 μM, and incubated for 3 hours at room temperature with and without 10-30 μg/mL of Sos added to the final hour of the incubation. When performing IC50 measurements a serial dilution of all tested concentrations was added. Then Cy3-GTP or Cy5-GTP was added to each well to a final concentration of 100 nM. The labeled GTP was incubated for 45 minutes at room temperature. Following GTP incubation, wells were washed 3× in Buffer-I or Buffer-II and 200 μL of Buffer-I or Buffer-II was added to each well. Following washes, the amount of bound labeled-GTP was measured using a SpectraMax M3 (Molecular Devices).

MAPK p38 = MAPK p38 Activation Assay in Panc-1 (western blot); assay type: cell-based, Human; design: key: Y = yes; N = No; details: at 10 μM
Experimental: (§6) Cell lines: Human tumor-derived pancreatic cancer cell line Panc-1 and mouse muscle myoblast C2C12 were purchased from American Type Culture Collection and grown in complete DMEM-High Glucose, supplemented with penicillin (100 U/mL), streptomycin (100 μg/mL), and 10% heat-inactivated FBS at 37° C. in a humidified incubator with 5% CO2.
(§7) Method: Cells were plated at 350000 cells/well density in a 12-well plate, allowed 3 hours to adhere to the plate, then starved in the appropriate medium in the presence of 0.5% FBS overnight. The small molecules to be tested were added to the cells in the final concentration of 10 μM in the presence of 0.3% DMSO for 3 hours incubation at 37° C. For IC50 value determination, serial dilutions of compounds were added to cells under the same conditions. Next, Panc-1 cells were stimulated with 10 ng/ml TGF-b1 for 1 hour, and C2C12 cells were stimulated with 10 ng/ml TGF-b1 for 20 minutes (recombinant human TGF-b1, R&D Systems). After stimulation cells were lysed with lysis buffer containing 1% Triton X-100, EDTA, and Halt™ Protease & Phosphatase Inhibitor Cocktail (Thermo Scientific). Protein concentration was assessed by BCA protein assay (Thermo Scientific). Phosphorylation level of MAPK p38 was determined by western blot.
(§8) Western blot protocol: Equal amounts of protein (15-50 μg) were separated by SDS-PAGE and transferred to nitrocellulose membranes (Invitrogen by Thermo Fisher Scientific). The membrane was stained with Ponceau S Stain (Boston BioProducts) to verify uniform protein loading. Membranes were blocked with 10% milk and phosphorylation levels of Smad2/Smad3 were assessed by incubating overnight at 4° C. with the following antibody: Phospho-p38 MAPK (Thr180/Tyr182), from Cell Signaling Technology. Then the membranes were incubated with HRP-conjugated secondary antibody (Jackson Immunoresearch, West Grove, PA). Bands were incubated in Amersham ECL Prime Western Blotting Detection Reagent (GE Healthcare) and visualized using the ChemiDoc MP imaging system (Bio-Rad).

Rho-A = Rho-A (Homo sapiens (Human), UniProt P61586); experiment: Ras GTP Binding Domain Inhibition Assay, Rho-A
Chain of Rho-A (P61586 whole entry, species assumed, the tested form may be a part): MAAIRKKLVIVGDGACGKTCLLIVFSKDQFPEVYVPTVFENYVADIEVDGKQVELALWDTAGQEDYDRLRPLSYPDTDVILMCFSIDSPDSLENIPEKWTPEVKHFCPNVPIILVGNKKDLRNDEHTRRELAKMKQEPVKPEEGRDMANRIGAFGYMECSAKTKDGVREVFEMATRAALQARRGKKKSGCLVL
Experimental: as §1, §2, §3, §4, §5

JNK = JNK Activation Assay in Panc-1 (western blot); assay type: cell-based, Human; design: key: Y = yes; N = No; details: at 10 μM
Experimental: as §6
as §7, with “JNK” for “MAPK p38”
as §8, with “Smad2, Smad3, INK and p38” for “Smad2/Smad3”, “Phospho-SAPK/JNK (Thr183/Tyr185),” for “Phospho-p38 MAPK (Thr180/Tyr182),”

KRas wild type = KRas wild type (Homo sapiens (Human), UniProt P01116); experiment: Ras GTP Binding Domain Inhibition Assay, KRas wild type
Chain of KRas wild type (P01116 other isoform, or with tags, fused parts or gaps): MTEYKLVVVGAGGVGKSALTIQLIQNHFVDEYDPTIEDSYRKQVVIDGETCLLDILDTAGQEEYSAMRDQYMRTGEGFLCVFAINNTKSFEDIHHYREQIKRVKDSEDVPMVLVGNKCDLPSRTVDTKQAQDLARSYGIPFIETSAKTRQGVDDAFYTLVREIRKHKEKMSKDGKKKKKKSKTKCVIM
Experimental: as §1, §2, §3, §4, §5

[1] = + SOS, read-out: KRas G12D mutant + SOS: % inh.
[2] = without SOS, read-out: KRas G12D mutant: % inh.
[3] = without SOS, read-out: Rho-A: % inh.
[4] = + SOS, read-out: KRas wild type + SOS: % inh.
[5] = without SOS, read-out: KRas wild type: % inh.
[6] = + SOS, read-out: Rho-A + SOS: % inh.

Compound	inhibition at 20 µM (KRas G12D mutant; [1]) [%]	KRas G12D mutant + SOS: % inh. (KRas G12D mutant; + SOS)	inhibition at 20 µM (KRas G12D mutant; [2]) [%]	KRas G12D mutant: % inh. (KRas G12D mutant; without SOS)	Activation of MAPK p38 in PANC-1 (MAPK p38)	inhibition at 20 µM (Rho-A; [3]) [%]	Activation of JNK in PANC-1 (JNK)	inhibition at 20 µM (KRas wild type; [4]) [%]	inhibition at 20 µM (KRas wild type; [5]) [%]	inhibition at 20 µM (Rho-A; [6]) [%]
COc1cccc(-c2sc3nc(-c4nccn4C)nc(N[C@@H]4CC[C@@H](OC)C4)c3c2C)c1F (racemic) [Compound 43, rac-6-(2-Fluoro-3-methoxyphenyl)-N-((1R,3R)-3-methoxycyclopentyl)-5-methyl-2-(1-methyl-1H-imidazol-2-yl)thieno[2,3-d]pyrimidin-4-amine]	76 to 100	D (D = 76-100% inhibition)	1 to 25	A (A = 1-25% inhibition)	Y	26 to 45	Y	76 to 100	26 to 45	–
COc1cc(-c2sc3nc(-c4nccn4C)nc(N[C@@H]4CC[C@H](OC)C4)c3c2-c2ccccc2)ccn1 (racemic) [Compound 44, rac-N-((1R,3S)-3-Methoxycyclopentyl)-6-(2-methoxypyridin-4-yl)-2-(1-methyl-1H-imidazol-2-yl)-5-phenylthieno[2,3-d]pyrimidin-4-amine]	46 to 75	C (C = 46-75% inhibition)	76 to 100	D (D = 76-100% inhibition)	N	0	Y	76 to 100	46 to 75	–
COc1cc(-c2sc3nc(-c4nccn4C)nc(N[C@@H]4CC[C@@H](OC)C4)c3c2-c2ccccc2)ccn1 (racemic) [Compound 47, N-((1R,3R)-3-Methoxycyclopentyl)-6-(2-methoxypyridin-4-yl)-2-(1-methyl-1H-imidazol-2-yl)-5-phenylthieno[2,3-d]pyrimidin-4-amine]	76 to 100	D (D = 76-100% inhibition)	46 to 75	C (C = 46-75% inhibition)	N	46 to 75	Y	76 to 100	76 to 100	–
CO[C@@H]1CC[C@H](Nc2nc(-c3nccn3C)nc3sc(-c4ccn(C(C)C)n4)c(-c4ccccc4)c23)C1 (single isomer, unassigned) [Compound 11]	46 to 75	C (C = 46-75% inhibition)	46 to 75	C (C = 46-75% inhibition)	Y	26 to 45	Y	76 to 100	46 to 75	26 to 45
COCCNc1nc(-c2nccn2C)nc2sc(-c3ccccc3)c(-c3ccccc3)c12 [Compound 1, N-(2-Methoxyethyl)-2-(1-methyl-1H-imidazol-2-yl)-5,6-diphenylthieno[2,3-d]pyrimidin-4-amine]	1 to 25	A (A = 1-25% inhibition)	76 to 100	D (D = 76-100% inhibition)	N	46 to 75	Y	1 to 25	1 to 25	–
COCCN(C)c1nc(-c2nccn2C)nc2sc(-c3ccccc3)c(-c3ccccc3)c12 [Compound 2, N-(2-Methoxyethyl)-N-methyl-2-(1-methyl-1H-imidazol-2-yl)-5,6-diphenylthieno[2,3-d]pyrimidin-4-amine]	–	–	46 to 75	C (C = 46-75% inhibition)	Y	26 to 45	Y	–	46 to 75	–
COCCCNc1nc(-c2nccn2C)nc2sc(-c3ccccc3)c(-c3ccccc3)c12 [Compound 3, N-(3-Methoxypropyl)-2-(1-methyl-1H-imidazol-2-yl)-5,6-diphenylthieno[2,3-d]pyrimidin-4-amine]	1 to 25	A (A = 1-25% inhibition)	46 to 75	C (C = 46-75% inhibition)	Y	46 to 75	Y	1 to 25	46 to 75	–
COCCNc1nc(-c2nccn2C)nc2sc(-c3ccccc3)c(-c3ccccc3Cl)c12 [Compound 4, 5-(2-Chlorophenyl)-N-(2-methoxyethyl)-2-(1-methyl-1H-imidazol-2-yl)-6-phenylthieno[2,3-d]pyrimidin-4-amine]	–	–	26 to 45	B (B = 26-45% inhibition)	Y	26 to 45	Y	–	1 to 25	–
COC1CCN(c2nc(-c3nccn3C)nc3sc(-c4ccn(C)n4)c(-c4ccccc4)c23)CC1 [Compound 6, 4-(4-Methoxypiperidin-1-yl)-2-(1-methyl-1H-imidazol-2-yl)-6-(1-methyl-1H-pyrazol-3-yl)-5-phenylthieno[2,3-d]pyrimidine]	26 to 45	B (B = 26-45% inhibition)	26 to 45	B (B = 26-45% inhibition)	N	0	Y	26 to 45	0	0
